Reference: PubChem BioAssay (NCI)
“And” between values parts separate entries of the source, which are not always exact repeats. Identical values can stand only once.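 Test compounds were applied to cells in 96-well plates for 48 hours at 5 doses. GI50 = concentration required for 50% inhibition of growth. TGI denotes the concentration required for complete inhibition of growth.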

What follows are compounds tested on MOLT-4 leukemia (assay: NCI-60 cell line screen, 48 h).

Row | Compound | GI50 [µM] | TGI
1 | COc1cc(NC2CCCCC2O)c2nc(-c3ccc(Cl)cc3)ccc2c1 (stereo not given) | 3 | 46.6 µM
2 | Nn1c(-c2ccc(Cl)cc2)nc2c(-c3ccc(Cl)cc3)nc3ccc(Cl)cc3c2c1=O | 4.67 | > 100 µM
3 | COc1ccc(-c2csc(Nc3cccc(-c4csc(C)n4)c3)n2)cc1 | 0.287 | 7.11 µM
4 | COc1cc(/C=C2\SC(N3CCCCC3)=NC2=O)ccc1OCCCCCCOc1ccc(/C=C2\SC(N3CCCCC3)=NC2=O)cc1OC | 17.4 | > 100 µM
5 | COc1cc2c3cc1Oc1c(OC)c(OC)cc4c1C(Cc1ccc(O)c(c1)Oc1ccc(cc1)CC3N(C)CC2)N(C)CC4 (stereo not given) | 12.1 | > 100 µM and 54.9 µM
6 | C[As](C)SC1OCC(O)C(O)C1O (stereo not given) | 0.0825 | 0.395 µM
7 | COc1cc2c3c(n(CCCNCCCNCCCN)c(=O)c2cc1OC)-c1cc2c(cc1C3=O)OCO2 | 21.2 | > 100 µM
8 | CCOC1Oc2ccc(C)cc2C(=O)/C1=C\Nc1ccc(S(N)(=O)=O)cc1 (stereo not given) | 13.9 | > 50 µM
9 | Cc1nc2ccccc2c(=O)n1/N=C(\N=Nc1cc(Cl)ccc1Cl)c1ccccc1 | – | > 100 µM
10 | O=c1[nH]cnc2n[nH]nc12 | – | 98.4 µM
11 | CC1(C)C2CCC13C(=O)C1OC3(C2)C2C(=O)c3c(ccc4c3ccc3ccccc34)C(=O)C12 (stereo not given) | 1.1 | 10.6 µM

What follows are compounds tested on NCI-H226 lung (assay: NCI-60 cell line screen, 48 h).

Row | Compound | GI50 | TGI
12 | CS(=O)(=O)Nc1cc(-c2ccc3ncnc(Nc4cccc(Cl)c4)c3c2)cnc1Cl | 1.1 µM | 7.62 µM
13 | COc1ccc2c(c1OC)O/C(=C\c1ncc([N+](=O)[O-])n1C)C2=O | 7.29 µM | 50.8 µM
14 | CC1(C)N=C(N)N=C(N)N1c1cccc(CCc2ccccc2)c1 | 3.42 µM | > 100 µM
15 | O=C1Nc2ccc3c(c2/C1=C\c1cc2c(cc1Br)OCO2)OCO3 | 1.38 µM | 5.35 µM
16 | COc1cc2cc(Oc3cccc(NC(=O)Nc4cc(C(F)(F)F)cc(C(F)(F)F)c4)c3)c(C)nc2cc1OC | 1.8 µM | 3.91 µM
17 | COc1cc2ncnc(Oc3cccc(NC(=O)Nc4cc(C(C)(C)C(F)(F)F)on4)c3)c2cc1OC | 1.13 µM and 1.67 µM | 33.7 µM and > 10 µM
18 | COc1ccc(/C=C/C(=O)c2cc3c(N)c(C(=O)Nc4ccc(OC)cc4)sc3nc2C)cc1 | 0.0872 µM | –
19 | CCOC(=O)[C@@H]1CSC(CC)=C(C(=O)O)N1 | > 100 µM | > 100 µM
20 | COc1cc(NC2CCCCC2O)c2nc(-c3ccc(Cl)cc3)ccc2c1 (stereo not given) | 18.6 µM | > 100 µM
21 | Nn1c(-c2ccc(Cl)cc2)nc2c(-c3ccc(Cl)cc3)nc3ccc(Cl)cc3c2c1=O | 40.8 µM | > 100 µM
22 | COc1ccc(-c2csc(Nc3cccc(-c4csc(C)n4)c3)n2)cc1 | 6.12 µM | 19.7 µM
23 | COc1cc(/C=C2\SC(N3CCCCC3)=NC2=O)ccc1OCCCCCCOc1ccc(/C=C2\SC(N3CCCCC3)=NC2=O)cc1OC | 5.18 µM | 22 µM
24 | COc1cc2c3cc1Oc1c(OC)c(OC)cc4c1C(Cc1ccc(O)c(c1)Oc1ccc(cc1)CC3N(C)CC2)N(C)CC4 (stereo not given) | 34.4 µM | > 100 µM
25 | C[As](C)SC1OCC(O)C(O)C1O (stereo not given) | 0.68 µM | 2.19 µM
26 | COc1cc2c3c(n(CCCNCCCNCCCN)c(=O)c2cc1OC)-c1cc2c(cc1C3=O)OCO2 | > 100 µM | > 100 µM
27 | CCOC1Oc2ccc(C)cc2C(=O)/C1=C\Nc1ccc(S(N)(=O)=O)cc1 (stereo not given) | 22.3 µM | > 50 µM
28 | Cc1nc2ccccc2c(=O)n1/N=C(\N=Nc1cc(Cl)ccc1Cl)c1ccccc1 | – | > 100 µM
29 | O=c1[nH]cnc2n[nH]nc12 | – | > 66.1 µM
30 | CC1(C)C2CCC13C(=O)C1OC3(C2)C2C(=O)c3c(ccc4c3ccc3ccccc34)C(=O)C12 (stereo not given) | > 100 µM | > 100 µM

Each compound was assayed on SF-539 CNS (assay: NCI-60 cell line screen, 48 h).

Row | Compound | GI50 | TGI
31 | CS(=O)(=O)Nc1cc(-c2ccc3ncnc(Nc4cccc(Cl)c4)c3c2)cnc1Cl | 0.439 µM | 3.73 µM
32 | COc1ccc2c(c1OC)O/C(=C\c1ncc([N+](=O)[O-])n1C)C2=O | 3.1 µM | 10.2 µM
33 | CC1(C)N=C(N)N=C(N)N1c1cccc(CCc2ccccc2)c1 | 1.37 µM | > 100 µM
34 | O=C1Nc2ccc3c(c2/C1=C\c1cc2c(cc1Br)OCO2)OCO3 | 0.311 µM | 1.12 µM
35 | COc1cc2cc(Oc3cccc(NC(=O)Nc4cc(C(F)(F)F)cc(C(F)(F)F)c4)c3)c(C)nc2cc1OC | 1.45 µM | 3.21 µM
36 | COc1cc2ncnc(Oc3cccc(NC(=O)Nc4cc(C(C)(C)C(F)(F)F)on4)c3)c2cc1OC | 2.75 µM and 3.14 µM | 12.9 µM and > 10 µM
37 | COc1ccc(/C=C/C(=O)c2cc3c(N)c(C(=O)Nc4ccc(OC)cc4)sc3nc2C)cc1 | 0.327 µM | 1.54 µM
38 | CCOC(=O)[C@@H]1CSC(CC)=C(C(=O)O)N1 | > 100 µM | > 100 µM
39 | COc1cc(NC2CCCCC2O)c2nc(-c3ccc(Cl)cc3)ccc2c1 (stereo not given) | 10.5 µM | 51.4 µM
40 | Nn1c(-c2ccc(Cl)cc2)nc2c(-c3ccc(Cl)cc3)nc3ccc(Cl)cc3c2c1=O | 10.4 µM | 36.8 µM
41 | COc1ccc(-c2csc(Nc3cccc(-c4csc(C)n4)c3)n2)cc1 | 1.57 µM | 8.27 µM
42 | COc1cc(/C=C2\SC(N3CCCCC3)=NC2=O)ccc1OCCCCCCOc1ccc(/C=C2\SC(N3CCCCC3)=NC2=O)cc1OC | 6.95 µM | 24.2 µM
43 | COc1cc2c3cc1Oc1c(OC)c(OC)cc4c1C(Cc1ccc(O)c(c1)Oc1ccc(cc1)CC3N(C)CC2)N(C)CC4 (stereo not given) | 2.16 µM | –
44 | C[As](C)SC1OCC(O)C(O)C1O (stereo not given) | 0.111 µM | 0.595 µM
45 | COc1cc2c3c(n(CCCNCCCNCCCN)c(=O)c2cc1OC)-c1cc2c(cc1C3=O)OCO2 | > 100 µM | > 100 µM
46 | CCOC1Oc2ccc(C)cc2C(=O)/C1=C\Nc1ccc(S(N)(=O)=O)cc1 (stereo not given) | 7.49 µM | 24.2 µM
47 | Cc1nc2ccccc2c(=O)n1/N=C(\N=Nc1cc(Cl)ccc1Cl)c1ccccc1 | – | > 100 µM
48 | O=c1[nH]cnc2n[nH]nc12 | – | 23.9 µM
49 | CC1(C)C2CCC13C(=O)C1OC3(C2)C2C(=O)c3c(ccc4c3ccc3ccccc34)C(=O)C12 (stereo not given) | > 64.4 µM | > 100 µM
